According to US10815230B2, “Casein kinase 1 delta inhibitor” (ELECTROPHORETICS LIMITED, priority 2015, dated 2020):

How the values were obtained:
Assay in all cases: KINOMEscan binding assay
Details in all cases: read-out: % Ctrl @ 10000 nM
[1] = molecular target: ABL1 (F317L) non-phosphorylated (Homo sapiens, UniProt P00519, F317L)
[2] = molecular target: ABL1 (M351T) phosphorylated (Homo sapiens, UniProt P00519, M351T)
[3] = molecular target: ASK1 (Homo sapiens, UniProt Q99683)
[4] = molecular target: BMPR2 (Homo sapiens, UniProt Q13873)
[5] = molecular target: BRSK1 (Homo sapiens, UniProt Q8TDC3)
[6] = molecular target: CAMK2G (Homo sapiens, UniProt Q13555)
[7] = molecular target: CDK4-cyclinD1 (Homo sapiens, UniProt P11802)
[8] = molecular target: CTK (Homo sapiens, UniProt P42679)
[9] = molecular target: DAPK1 (Homo sapiens, UniProt P53355)
[10] = molecular target: DDR1 (Homo sapiens, UniProt Q08345)
[11] = molecular target: DDR2 (Homo sapiens, UniProt Q16832)
[12] = molecular target: FAK (Homo sapiens, UniProt Q05397)
[13] = molecular target: FES (Homo sapiens, UniProt P07332)
[14] = molecular target: FGFR3 (G697C) (Homo sapiens, UniProt P22607, G697C)
[15] = molecular target: FLT4 (Homo sapiens, UniProt P35916)
[16] = molecular target: GRK1 (Homo sapiens, UniProt Q15835)
[17] = molecular target: IKK-epsilon (Homo sapiens, UniProt Q14164)
[18] = molecular target: INSR (Homo sapiens, UniProt P06213)
[19] = molecular target: ITK (Homo sapiens, UniProt Q08881)
[20] = molecular target: JAK3 (JH1domain-catalytic) (Homo sapiens, UniProt P52333)
[21] = molecular target: KIT (Homo sapiens, UniProt P10721)
[22] = molecular target: KIT (A829P) (Homo sapiens, UniProt P10721, A829P)
[23] = molecular target: T1, MAP4K5 (Homo sapiens, UniProt Q9Y4K4)
T1 construct: T7 phage fusion (most assays) or DNA label after HEK293 expression; purchased DiscoveRx (KINOMEscan, LeadHunter Discovery services); host or cells: T7 phage in E. coli (BL21-derived) or HEK293

[24] = molecular target: MAST1 (Homo sapiens, UniProt Q9Y2H9)
[25] = molecular target: MINK (Homo sapiens, UniProt Q8N4C8)
[26] = molecular target: MKNK2 (Homo sapiens, UniProt Q9HBH9)
[27] = molecular target: MYLK (Homo sapiens, UniProt Q15746)
[28] = molecular target: PDGFRB (Homo sapiens, UniProt P09619)
[29] = molecular target: PIK3CA (C420R) (Homo sapiens, UniProt P42336, C420R)
[30] = molecular target: RPS6KA4 Kin.Dom.1-N-terminal (Homo sapiens, UniProt O75676)
[31] = molecular target: RSK1 Kin.Dom.2-C-terminal (Homo sapiens, UniProt Q15418)
[32] = molecular target: SGK3 (Homo sapiens, UniProt Q96BR1)
[33] = molecular target: SRMS (Homo sapiens, UniProt Q9H3Y6)
[34] = molecular target: STK39 (Homo sapiens, UniProt Q9UEW8)
[35] = molecular target: SYK (Homo sapiens, UniProt P43405)
[36] = molecular target: TEC (Homo sapiens, UniProt P42680)
[37] = molecular target: TIE1 (Homo sapiens, UniProt P35590)
[38] = molecular target: TRKA (Homo sapiens, UniProt P04629)
[39] = molecular target: T2, VEGFR2 (Homo sapiens, UniProt P35968)
T2 construct: purchased DiscoveRx (KINOMEscan, LeadHunter Discovery services)

[40] = molecular target: T3, YANK3 (Homo sapiens, UniProt Q86UX6)
T3 construct: purchased DiscoveRx (KINOMEscan, LeadHunter Discovery services)

[41] = molecular target: YES (Homo sapiens, UniProt P07947)

Sequence of JAK3 (JH1domain-catalytic) (P52333 822-1111 limits assumed): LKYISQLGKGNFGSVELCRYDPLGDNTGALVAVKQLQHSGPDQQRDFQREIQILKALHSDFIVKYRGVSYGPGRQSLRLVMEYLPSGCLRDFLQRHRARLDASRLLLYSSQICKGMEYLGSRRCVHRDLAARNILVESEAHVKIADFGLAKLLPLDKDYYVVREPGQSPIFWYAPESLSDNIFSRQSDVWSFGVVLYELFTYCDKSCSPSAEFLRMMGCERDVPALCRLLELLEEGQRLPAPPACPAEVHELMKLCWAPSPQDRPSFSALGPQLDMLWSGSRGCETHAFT
Sequence of CDK4-cyclinD1 (P11802 whole entry): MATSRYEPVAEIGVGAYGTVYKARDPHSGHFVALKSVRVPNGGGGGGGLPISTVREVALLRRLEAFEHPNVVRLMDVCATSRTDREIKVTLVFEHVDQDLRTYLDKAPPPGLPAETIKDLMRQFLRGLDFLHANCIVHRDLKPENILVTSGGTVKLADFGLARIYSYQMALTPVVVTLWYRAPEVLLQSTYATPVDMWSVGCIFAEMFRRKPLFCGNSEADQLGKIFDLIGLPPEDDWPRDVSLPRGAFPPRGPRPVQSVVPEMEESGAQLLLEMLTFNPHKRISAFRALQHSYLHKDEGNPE
Sequence of CDK4-cyclinD1 (P24385 whole entry partner): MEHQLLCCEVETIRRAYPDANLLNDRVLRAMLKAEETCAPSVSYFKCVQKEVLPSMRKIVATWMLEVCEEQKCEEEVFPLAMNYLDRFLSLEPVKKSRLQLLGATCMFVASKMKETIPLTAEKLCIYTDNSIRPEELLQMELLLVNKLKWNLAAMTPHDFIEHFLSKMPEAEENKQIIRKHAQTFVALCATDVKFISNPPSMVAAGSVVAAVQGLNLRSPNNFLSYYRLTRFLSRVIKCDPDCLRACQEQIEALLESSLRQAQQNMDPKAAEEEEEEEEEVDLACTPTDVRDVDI
Sequence of TEC (P42680 whole entry): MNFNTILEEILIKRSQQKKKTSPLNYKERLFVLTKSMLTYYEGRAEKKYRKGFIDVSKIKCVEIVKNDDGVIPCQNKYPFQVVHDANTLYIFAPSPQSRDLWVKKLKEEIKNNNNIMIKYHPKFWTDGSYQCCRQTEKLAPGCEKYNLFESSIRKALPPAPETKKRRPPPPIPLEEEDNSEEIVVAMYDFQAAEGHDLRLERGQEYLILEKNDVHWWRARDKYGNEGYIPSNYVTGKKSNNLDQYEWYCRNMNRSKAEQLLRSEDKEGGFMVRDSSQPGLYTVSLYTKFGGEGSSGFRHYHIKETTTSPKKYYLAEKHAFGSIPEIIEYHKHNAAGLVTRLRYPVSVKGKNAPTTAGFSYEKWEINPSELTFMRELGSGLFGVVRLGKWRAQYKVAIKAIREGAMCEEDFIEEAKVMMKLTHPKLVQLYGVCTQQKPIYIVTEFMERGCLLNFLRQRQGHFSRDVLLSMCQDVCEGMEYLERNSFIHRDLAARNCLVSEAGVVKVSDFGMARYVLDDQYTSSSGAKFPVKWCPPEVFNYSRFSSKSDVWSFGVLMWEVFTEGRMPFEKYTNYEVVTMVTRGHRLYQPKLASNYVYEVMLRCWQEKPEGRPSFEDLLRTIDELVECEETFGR
Sequence of SRMS (Q9H3Y6 whole entry): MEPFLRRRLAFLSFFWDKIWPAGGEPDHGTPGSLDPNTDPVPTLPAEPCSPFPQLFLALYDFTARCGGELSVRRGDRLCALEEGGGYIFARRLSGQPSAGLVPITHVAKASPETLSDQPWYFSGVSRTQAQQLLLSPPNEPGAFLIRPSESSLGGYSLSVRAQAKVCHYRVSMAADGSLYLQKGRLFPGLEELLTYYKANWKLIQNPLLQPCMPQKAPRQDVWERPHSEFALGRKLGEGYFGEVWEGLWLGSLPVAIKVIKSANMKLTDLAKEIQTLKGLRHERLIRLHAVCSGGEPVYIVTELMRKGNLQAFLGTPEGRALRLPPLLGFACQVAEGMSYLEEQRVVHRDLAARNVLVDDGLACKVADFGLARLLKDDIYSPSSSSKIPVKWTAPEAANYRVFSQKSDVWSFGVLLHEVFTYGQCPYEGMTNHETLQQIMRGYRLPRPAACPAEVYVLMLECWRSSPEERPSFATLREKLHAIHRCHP
Sequence of MINK (Q8N4C8 whole entry): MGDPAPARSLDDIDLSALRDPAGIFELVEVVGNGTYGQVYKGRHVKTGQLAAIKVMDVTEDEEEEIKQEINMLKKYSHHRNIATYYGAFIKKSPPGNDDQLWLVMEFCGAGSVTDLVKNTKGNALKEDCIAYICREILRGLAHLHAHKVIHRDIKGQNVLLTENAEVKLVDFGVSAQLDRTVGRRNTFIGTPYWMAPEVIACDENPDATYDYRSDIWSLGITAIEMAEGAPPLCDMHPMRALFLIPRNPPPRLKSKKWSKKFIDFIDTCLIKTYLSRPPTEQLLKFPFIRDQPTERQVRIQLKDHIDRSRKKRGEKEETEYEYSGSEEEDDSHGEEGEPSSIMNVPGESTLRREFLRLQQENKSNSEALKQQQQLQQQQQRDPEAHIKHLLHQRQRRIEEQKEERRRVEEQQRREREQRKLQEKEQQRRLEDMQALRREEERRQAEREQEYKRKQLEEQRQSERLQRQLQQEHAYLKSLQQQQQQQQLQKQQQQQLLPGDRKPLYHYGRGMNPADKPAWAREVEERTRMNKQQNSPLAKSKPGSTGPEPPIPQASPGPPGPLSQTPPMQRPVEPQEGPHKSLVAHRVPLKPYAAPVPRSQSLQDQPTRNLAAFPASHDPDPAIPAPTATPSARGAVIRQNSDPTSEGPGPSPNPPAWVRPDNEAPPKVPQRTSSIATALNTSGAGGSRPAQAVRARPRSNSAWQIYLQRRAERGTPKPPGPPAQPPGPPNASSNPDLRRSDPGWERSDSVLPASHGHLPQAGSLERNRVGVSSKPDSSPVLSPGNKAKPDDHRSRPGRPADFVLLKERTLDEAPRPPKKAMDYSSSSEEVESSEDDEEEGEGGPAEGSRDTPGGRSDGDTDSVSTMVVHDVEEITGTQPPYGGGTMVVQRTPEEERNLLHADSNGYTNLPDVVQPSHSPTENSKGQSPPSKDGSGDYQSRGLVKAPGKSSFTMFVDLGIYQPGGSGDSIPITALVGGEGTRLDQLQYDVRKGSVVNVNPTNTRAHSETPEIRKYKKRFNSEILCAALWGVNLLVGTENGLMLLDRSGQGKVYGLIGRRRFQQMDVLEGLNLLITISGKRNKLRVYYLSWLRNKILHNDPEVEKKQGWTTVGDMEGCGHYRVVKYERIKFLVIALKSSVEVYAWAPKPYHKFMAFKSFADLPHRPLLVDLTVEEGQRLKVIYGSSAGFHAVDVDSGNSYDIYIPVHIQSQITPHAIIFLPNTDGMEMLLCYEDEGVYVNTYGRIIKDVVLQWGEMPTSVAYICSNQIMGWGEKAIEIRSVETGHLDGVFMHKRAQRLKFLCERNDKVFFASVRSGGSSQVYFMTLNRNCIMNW
Sequence of DDR1 (Q08345 19-913): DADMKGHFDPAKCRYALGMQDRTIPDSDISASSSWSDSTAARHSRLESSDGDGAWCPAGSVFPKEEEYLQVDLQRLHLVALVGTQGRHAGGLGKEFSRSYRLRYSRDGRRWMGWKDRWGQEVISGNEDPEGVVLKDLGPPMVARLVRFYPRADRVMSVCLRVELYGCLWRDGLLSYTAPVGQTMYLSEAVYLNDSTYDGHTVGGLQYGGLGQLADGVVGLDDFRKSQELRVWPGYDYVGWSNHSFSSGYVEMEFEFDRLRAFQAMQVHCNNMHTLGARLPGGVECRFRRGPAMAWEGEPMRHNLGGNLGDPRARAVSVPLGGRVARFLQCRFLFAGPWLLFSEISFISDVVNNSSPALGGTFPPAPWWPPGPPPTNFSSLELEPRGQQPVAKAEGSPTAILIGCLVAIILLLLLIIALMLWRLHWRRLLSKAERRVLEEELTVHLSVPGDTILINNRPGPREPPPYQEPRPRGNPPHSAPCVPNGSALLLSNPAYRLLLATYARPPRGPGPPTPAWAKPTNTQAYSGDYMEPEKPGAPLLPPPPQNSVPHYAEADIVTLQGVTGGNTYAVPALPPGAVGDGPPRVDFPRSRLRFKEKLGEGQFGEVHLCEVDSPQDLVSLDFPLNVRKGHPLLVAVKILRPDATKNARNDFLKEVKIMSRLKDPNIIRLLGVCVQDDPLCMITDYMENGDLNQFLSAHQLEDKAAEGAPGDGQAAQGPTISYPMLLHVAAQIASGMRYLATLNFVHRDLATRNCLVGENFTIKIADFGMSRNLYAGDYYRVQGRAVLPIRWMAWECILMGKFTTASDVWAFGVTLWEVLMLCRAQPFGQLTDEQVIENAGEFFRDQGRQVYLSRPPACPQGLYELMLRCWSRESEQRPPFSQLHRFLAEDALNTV
Sequence of CTK (P42679 whole entry): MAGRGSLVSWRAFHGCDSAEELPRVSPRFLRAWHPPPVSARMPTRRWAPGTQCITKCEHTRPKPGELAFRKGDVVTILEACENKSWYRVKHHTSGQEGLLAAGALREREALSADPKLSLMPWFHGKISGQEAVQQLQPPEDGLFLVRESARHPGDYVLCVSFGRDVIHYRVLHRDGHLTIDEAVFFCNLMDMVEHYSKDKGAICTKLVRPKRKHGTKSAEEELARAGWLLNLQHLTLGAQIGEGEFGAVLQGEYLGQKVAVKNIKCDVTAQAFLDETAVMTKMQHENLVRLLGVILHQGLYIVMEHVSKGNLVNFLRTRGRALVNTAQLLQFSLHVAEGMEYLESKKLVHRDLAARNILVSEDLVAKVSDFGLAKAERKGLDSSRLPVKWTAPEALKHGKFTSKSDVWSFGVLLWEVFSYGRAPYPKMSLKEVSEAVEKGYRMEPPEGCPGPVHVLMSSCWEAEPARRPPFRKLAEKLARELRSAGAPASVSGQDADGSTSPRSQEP
Sequence of RSK1 Kin.Dom.2-C-terminal (Q15418 418-675 limits assumed): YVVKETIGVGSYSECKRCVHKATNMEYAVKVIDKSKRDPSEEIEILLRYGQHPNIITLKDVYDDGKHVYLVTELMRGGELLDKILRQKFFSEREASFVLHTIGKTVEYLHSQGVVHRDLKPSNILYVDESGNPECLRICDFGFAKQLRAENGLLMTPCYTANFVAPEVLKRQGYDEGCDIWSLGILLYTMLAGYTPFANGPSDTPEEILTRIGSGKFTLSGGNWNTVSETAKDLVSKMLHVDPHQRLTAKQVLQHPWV

Nc1ncc(-c2nc3ccccc3o2)c(-c2ccncc2)n1 [Comparative Compound 324, 5-(1,3-benzoxazol-2-yl)-4-(pyridine-4-yl)pyrimidin-2-amine]
remaining binding at 10 µM [1]: 100%
remaining binding at 10 µM [2]: 79%
remaining binding at 10 µM [3]: 96%
remaining binding at 10 µM [4]: 100%
remaining binding at 10 µM [5]: 98%
remaining binding at 10 µM [6]: 100%
remaining binding at 10 µM [7]: 85%
remaining binding at 10 µM [8]: 100%
remaining binding at 10 µM [9]: 87%
remaining binding at 10 µM [10]: 94%
remaining binding at 10 µM [11]: 100%
remaining binding at 10 µM [12]: 99%
remaining binding at 10 µM [13]: 78%
remaining binding at 10 µM [14]: 76%
remaining binding at 10 µM [15]: 79%
remaining binding at 10 µM [16]: 68%
remaining binding at 10 µM [17]: 82%
remaining binding at 10 µM [18]: 100%
remaining binding at 10 µM [19]: 86%
remaining binding at 10 µM [20]: 74%
remaining binding at 10 µM [21]: 91%
remaining binding at 10 µM [22]: 79%
remaining binding at 10 µM [23]: 88%
remaining binding at 10 µM [24]: 86%
remaining binding at 10 µM [25]: 56%
remaining binding at 10 µM [26]: 70%
remaining binding at 10 µM [27]: 86%
remaining binding at 10 µM [28]: 90%
remaining binding at 10 µM [29]: 99%
remaining binding at 10 µM [30]: 100%
remaining binding at 10 µM [31]: 44%
remaining binding at 10 µM [32]: 94%
remaining binding at 10 µM [33]: 100%
remaining binding at 10 µM [34]: 100%
remaining binding at 10 µM [35]: 100%
remaining binding at 10 µM [36]: 94%
remaining binding at 10 µM [37]: 100%
remaining binding at 10 µM [38]: 77%
remaining binding at 10 µM [39]: 94%
remaining binding at 10 µM [40]: 97%
remaining binding at 10 µM [41]: 100%

CNc1c(C(N)=O)c2ccccn2c1C(=O)c1ccc(F)cc1 [Compound A, 2-methyl-amino-3-[(4-fluorophenyl)carbonyl]indolizine-1-carboxamide]
remaining binding at 10 µM [1]: 88%
remaining binding at 10 µM [2]: 49%
remaining binding at 10 µM [3]: 87%
remaining binding at 10 µM [4]: 88%
remaining binding at 10 µM [5]: 100%
remaining binding at 10 µM [6]: 87%
remaining binding at 10 µM [7]: 47%
remaining binding at 10 µM [8]: 100%
remaining binding at 10 µM [9]: 77%
remaining binding at 10 µM [10]: 2.6%
remaining binding at 10 µM [11]: 65%
remaining binding at 10 µM [12]: 92%
remaining binding at 10 µM [13]: 75%
remaining binding at 10 µM [14]: 71%
remaining binding at 10 µM [15]: 62%
remaining binding at 10 µM [16]: 53%
remaining binding at 10 µM [17]: 74%
remaining binding at 10 µM [18]: 100%
remaining binding at 10 µM [19]: 78%
remaining binding at 10 µM [20]: 100%
remaining binding at 10 µM [21]: 32%
remaining binding at 10 µM [22]: 86%
remaining binding at 10 µM [23]: 62%
remaining binding at 10 µM [24]: 75%
remaining binding at 10 µM [25]: 57%
remaining binding at 10 µM [26]: 58%
remaining binding at 10 µM [27]: 71%
remaining binding at 10 µM [28]: 45%
remaining binding at 10 µM [29]: 94%
remaining binding at 10 µM [30]: 100%
remaining binding at 10 µM [31]: 23%
remaining binding at 10 µM [32]: 98%
remaining binding at 10 µM [33]: 93%
remaining binding at 10 µM [34]: 81%
remaining binding at 10 µM [35]: 86%
remaining binding at 10 µM [36]: 88%
remaining binding at 10 µM [37]: 95%
remaining binding at 10 µM [38]: 86%
remaining binding at 10 µM [39]: 79%
remaining binding at 10 µM [40]: 100%
remaining binding at 10 µM [41]: 78%
